Key:
[1] = biological target: T1, αS fibers-catalyzed aggregation of αS (Homo sapiens, UniProt P37840); test: αS fibers-catalyzed aggregation of αS, ThT kinetic assay; type: biochemical
T1 construct: made in house; host or cells: E. coli BL21(DE3)

[2] = test system: HEK293 cells stably expressing αS-A53T-YFP; test: ProteoStat dye assay, ligand pre-treatment, αS fibers templated intracellular aggregation; type: cell-based, human; conditions: ligand 10 µM for 16 h, washed, then 5 µM αS fibers for 24 h
Procedure: We further tested NS163 against intracellular αS aggregation using same HEK293 cells (express αS-A53T-YFP)[23],[24],[50]. In this assay, we added NS163 (10 µM) to the HEK cells and incubated the cells for 16 h, washed the cells and treated with the preformed fibers of αS (5 µM monomer) and incubated for an additional 24 h. The ProteoStat dye-based intensity of HEK cells treated with αS fibers was ~4 fold higher than the control (no fibers) (Supplementary Fig. 19). NS163 was a very potent antagonist as it was able to reduce the intracellular inclusions by 80% at 10 µM, measured using the ProteoStat dye-based assay (Supplementary Fig. 19). Under matched conditions, 10 µM NS132 was able to reduce the intracellular inclusions by 57% (Supplementary Fig. 19). The higher antagonist activity of NS163 than NS132 is likely due to the better cell permeability of the former. […] It is important to point out that our potent ligands (NS163 and NS132) were able to inhibit αS preformed fibers templated aggregation of both monomeric WT αS and A53T αS mutant. It has been shown that the WT αS fibers templated aggregation of WT αS and its mutants is predominantly dependent on the interaction of the fibers with the N-terminus of the monomeric WT αS and its mutants[62],[68],[69]. […]

Cc1ccc(NC(=O)c2ccc(NC(=O)c3ccc([N+](=O)[O-])c(NCCc4c[nH]c5ccccc45)n3)c(NCC3CCCCC3)n2)c(OCC(=O)O)n1 [NS132]
ThT fluorescence intensity, Average ([1]; 100 µM αS + αS fibers (20% monomer conc.) + equimolar ligand, time 0 hr): 181.667
effect on αS fibers-catalyzed aggregation of αS, in words ([1]; 100 μM αS, preformed αS fibers 20%, equimolar ligand): wholly suppressed
ThT fluorescence intensity, Average ([1]; seeded, equimolar ligand, time 3 hr): 168
ThT fluorescence intensity, Average ([1]; seeded, equimolar ligand, time 6 hr): 160.333
ThT fluorescence intensity, Average ([1]; seeded, equimolar ligand, time 9 hr): 164
ThT fluorescence intensity, Average ([1]; seeded, equimolar ligand, time 12 hr): 200.667
ThT fluorescence intensity, Average ([1]; seeded, equimolar ligand, time 24 hr): 255
ThT fluorescence intensity, Average ([1]; seeded, equimolar ligand, time 36 hr): 243.333
ThT fluorescence intensity, Average ([1]; seeded, equimolar ligand, time 48 hr): 299.333
reduction of intracellular inclusions (ProteoStat) [2]: 57%

From paper PMC11061149, “Protein mimetic 2D FAST rescues alpha synuclein aggregation mediated early and post disease Parkinson’s phenotypes” (Nature Communications, 2024)
